In brackets after ≈: the same amount, converted by molar mass.
Tests used:
Assay type in all cases: in vivo
[1] = test system: 3rd-instar larvae of Pyrausta nubilalis Hubern; experiment: Joint toxicity of I-72 + metaflumizone, artificial diet-pesticide film, Example 2, Table 2; conditions: Ostrinia nubilalis, 72 h, A = compound I-72, B = metaflumizone, read-out: LC50
Description: Test subject: 3rd-instar larvae of Pyrausta nubilalis Hubern, a sensitive strain reared indoors.
Experimental method: the artificial diet-pesticide film method was adopted. A standard clean 24-well culture plate was selected. 1 ml of artificial diet was added to each well. After the diet cooled and solidified, a quantitative amount of a pesticide solution was added to the culture plate using a continuous sampler, and then it was air-dried naturally in the shade. The standard test insects were introduced, with 1 insect in each well, a total of 48 insects. The treated test insects were placed in an observation room under certain conditions. The reaction of the test insects was regularly observed, and the number of dead and live insects was investigated 72 h later.
The test conditions, the preparation method of the pesticide solution, and the evaluation method (Sun Y-P) for the joint action type of the mixture were the same as those in Example 1.

[2] = test system: mixed aphids of Myzus persicae (Sulzer); experiment: Joint toxicity of I-72 + matrine, Example 34, Table 34; conditions: A = compound I-72, B = matrine, spraying on cabbage leaves with aphids, 48 hours, read-out: LC50
Description: Test subject: mixed aphids of Myzus persicae (Sulzer), a sensitive strain reared indoors.
Experimental method: the spraying method on leaves with aphids was adopted. Cabbage leaves with a certain number of Myzus persicae (Sulzer) were taken. The prepared pesticide solutions were evenly sprayed on both the front and back sides of the leaves in the order from low concentration to high concentration according to the experimental design. Then, the leaves were placed in a 6-cm-diameter Petri dish with filter paper. After natural air-drying in the shade, they were placed in the observation room. The experiment had 3 replicates set, and in addition, a blank control was set up. The number of dead and live insects was investigated 48 hours later. The corrected mortality rate was calculated using the Abbott's formula, and the DPS data processing software was used for statistical analysis to calculate the toxicities (LC50 values) of the single test pesticides and the mixtures under the test ratios.
The test conditions, the preparation of the pesticide solution and the evaluation method were the same as those in Example 1.

[3] = test system: Nilaparvata lugens (Stal) nymphs; experiment: Joint toxicity of I-72 + etofenprox, Example 44, Table 44; conditions: A = compound I-72, B = etofenprox, potted rice seedling spraying, 72 hours, read-out: LC50
Description: Test target: Nilaparvata lugens (Stal) nymphs, a sensitive strain reared indoors.
(§1) Preparation of the pesticide solution: according to different test requirements, the test samples were accurately weighed respectively with an electronic analytical balance. The technical pesticides were dissolved in acetone, and then diluted with 0.1% Tween 80 water into a series of pesticide solutions with a certain concentration gradient according to the experimental design dosage.
Experimental method: the activity of the mixture against the Nilaparvata lugens (Stal) nymphs was determined by adopting the potted-seedling spraying method. First, rice seedlings were planted in culture pots. Uniform spraying was performed with the pesticide solution in the order from low dosage to high dosage according to the experimental design, with 2 mL for each seedling. Then, Nilaparvata lugens nymphs of uniform size were transferred onto the rice seedlings, with 3 replicates for each treatment. In addition, a blank control was set up.
(§2) The treated test materials were placed in an observation room, and the temperature, humidity and illumination of the observation room could be adjusted as needed. The number of dead and live insects was investigated 72 hours later. […] Then, the co-toxicity coefficient of each ratio was calculated using the Sun Y-P method to evaluate the mixing effect (the same as in Example 1).

[4] = test system: Bemisia tabaci (Gennadius) nymphs; experiment: Joint toxicity of I-72 + thiacloprid, Example 71, Table 71; conditions: A = compound I-72, B = thiacloprid, cotton leaf-disk spraying, 96 hours, read-out: LC50
Description: Test target: Bemisia tabaci (Gennadius) nymphs, a sensitive strain reared indoors.
as §1
Experimental method: first, cotton leaves with neat and consistent Bemisia tabaci (Gennadius) nymphs were selected and made into leaf disks, with about 20 insects on each leaf disk. Then, they were evenly sprayed with the pesticide solution in the order from low dosage to high dosage according to the experimental design, with 1.5 mL for each leaf and 3 replicates for each treatment. In addition, a blank control was set up.
as §2, with “96” for “72”

[5] = test system: 3rd-instar larvae of Agrotis ipsilon (Rottemberg); experiment: whole plant or invertebrate; conditions: Agrotis ipsilon; A = compound I-72, B = metalaxyl-M; insect-dipping; 72 hours; read-out: LC50
Description: Test conditions: temperature: 24-26° C., humidity: RH 60%, and illumination: L:D=14:10
as §1
The target insects were dipped into the pesticide solution for 10 s and then taken out. Excess pesticide solution was absorbed with filter paper. […] A treatment without the pesticide was set as the blank control.
The number of dead and live insects was investigated 72 hours later. The corrected mortality rate was calculated using the Abbott's formula, and statistical analysis was performed with the DPS data processing software to obtain the toxicity regression equation and LC50 value of each single test pesticide and each mixture of different ratios.

Cnaphalocrocis medinalis = experiment: Field efficacy trial of I-72 and Bacillus thuringiensis on rice, Example 86, Table 86; conditions: 20 days after application
Description: This trial was arranged in the suburban area of Jurong City, Jiangsu Province. The conventional spraying method was adopted in the trial. The investigation method was to take samples at 5 points, and a total of 25 clusters of rice were investigated. The investigation was performed 20 days after the pesticide application. By comparing with the leaf rolling rate in the control plot, the relative control efficacy was calculated. The amount of water used per mu was 45 L.
The test pesticides were as follows: A: 8000 IU/μL Bacillus thuringiensis suspension (produced by Qingdao Audis Biotechnology Co., Ltd. of Shandong), and B: compound I-72 (dissolved in acetone, 0.1% Tween 80 was added, and a 10% stock solution was prepared for use).
[formula] [formula] • in the formula, CK is the leaf rolling rate in the blank control plot after the pesticide application

## CN(C(=O)c1ccc2c(c1)OC(F)(F)O2)c1cccc(C(=O)Nc2c(Br)cc(C(F)(C(F)(F)F)C(F)(F)F)cc2OC(F)F)c1F [Compound I-72]
[1]
  LC50: 0.67 µg/mL
[2]
  LC50: 6.36 µg/mL
[3]
  LC50: 282 µg/mL
[4]
  LC50: 10.9 µg/mL
[5]
  LC50: 0.265 µg/mL (≈ 0.357 µM)
Cnaphalocrocis medinalis; dose 9 ml per mu
  Control efficacy: 79.6%
  Leaf rolling rate: 8.6%
Cnaphalocrocis medinalis; dose 11.25 ml per mu
  Control efficacy: 85.0%
  Leaf rolling rate: 6.3%
Cnaphalocrocis medinalis; dose 13.5 ml per mu
  Control efficacy: 86.8%
  Leaf rolling rate: 5.6%

Source: US20260198495A1, “BINARY INSECTICIDE COMPOSITION AND USE THEREOF” (SHENYANG SINOCHEM AGROCHEMICALS R & D CO., LTD., priority 2022, published 2026)
